This note sets out measurements from ChEMBL document CHEMBL5528040, “Design and Synthesis of Novel 3-Nitro-1H-1,2,4-triazole-1,2,3-triazole-1,4-disubstituted Analogs as Promising Antitrypanosomatid Agents: Evaluation of In Vitro Activity against Chagas Disease and Leishmaniasis” (J Med Chem, 2024).

As a reminder, the IC50 is the point on the concentration scale where inhibition reaches its midpoint. The CC50 is the concentration that lowers cell viability or growth by half. Broadly, the pIC50 is the IC50 on a negative log10 scale, so that one unit is a factor of ten.

Structures are written as SMILES.

Data set [1] can be described thus: Mutagenicity in Salmonella typhimurium TA98 assessed as number of revertant colonies at 10 ug per plate incubated for 90 mins by AMES test (reference value: 22.67 +/- 0.58). It is filed as toxicity, Salmonella enterica subsp. enterica serovar Typhimurium. Conditions: in vivo, 1.5 h, dose 10 µg.
For a further data set, the system named is Leishmania amazonensis. Description: Antileishmanial activity against Leishmania amazonensis IFLA/BR/1967/PH8 amastigotes infected in murine peritoneal macrophages incubated for 24 hrs by Giemsa staining based analysis. It is filed as functional, organism-based. Conditions: IFLA/BR/1967/PH8, Peritoneal macrophage.
The test system of data set [2] is Trypanosoma cruzi. Nature of the data set: Antitrypanosomal activity against Trypanosoma cruzi Tulahuen amastigotes transfected with Escherichia coli beta-galactosidase LacZ gene infected in monkey LLC-MK2 cells assessed as inhibition of amastigotes growth incubated for 72 hrs by absorbance based microplate reader analysis. It is filed as functional, organism-based. Conditions: LLC-MK2, 72 h.

The nature of data set [3]: Selectivity index, ratio of CC50 for cytotoxicity against monkey LLC-MK2 cells to IC50 for antitrypanosomal activity against Trypanosoma cruzi Tulahuen amastigotes transfected with Escherichia coli beta-galactosidase LacZ gene infected in monkey LLC-MK2 cells. It is filed as toxicity, cell-based. The conditions noted are these: read-out: Ratio CC50/IC50.
The nature of data set [4]: Cytotoxicity against monkey LLC-MK2 cells incubated for 72 hrs by MTT assay. It is filed as toxicity, cell-based, Macaca mulatta. Conditions: rhesus monkey. For orientation: Tetrazolium assays rely on reduction of a dye to a coloured formazan, in cell work by metabolically active cells.
The nature of data set [5]: Substrate activity at Trypanosoma cruzi type I nitro reductase assessed as reduction in NADH incubated for 120 sec by spectrophotometric analysis.
Data set [6] relates to Trypanosoma cruzi. Nature of the data set: Potency index, ratio of Benznidazole IC50 to test compound IC50 for antitrypanosomal activity against Trypanosoma cruzi Tulahuen amastigotes transfected with Escherichia coli beta-galactosidase LacZ gene infected in monkey LLC-MK2 cells assessed as inhibition of amastigotes growth incubated for 72 hrs by absorbance based microplate reader analysis. It is filed as functional.

Data set [7] in a line: Mutagenicity in Salmonella typhimurium TA100 assessed as number of revertant colonies at 2.5 ug per plate incubated for 90 mins by AMES test (reference value: 88.00 +/- 2.65). It is filed as toxicity, Salmonella enterica subsp. enterica serovar Typhimurium. Conditions: in vivo, 1.5 h, dose 2.5 µg.

On to `Nc1ccc([N+](=O)[O-])cc1N`, for which, in data set [1], the Activity worked out at 253.
Turning to `O=C(O)c1ccc(-n2cc(Cn3cnc([N+](=O)[O-])n3)nn2)cc1`, the IC50 is 4.7 µM in the data set on Leishmania amazonensis and above 50000 nM with Trypanosoma cruzi [2]. Moreover, the selectivity ratio in data set [3] was above 1. In data set [4], this compound displayed a CC50 at 72 h above 50 µM.
For `O=[N+]([O-])c1ncn(Cc2cn(-c3ccc(F)c(F)c3)nn2)n1` the same measures were 4.7 µM, 22600 nM, above 4.4 and above 50 µM.
The corresponding values for `O=[N+]([O-])c1ncn(Cc2cn(-c3cccc(C(F)(F)F)c3)nn2)n1` are 4.7 µM, 5800 nM, above 17.2 and above 50 µM.
Take `COc1cc(OC)cc(-n2cc(Cn3cnc([N+](=O)[O-])n3)nn2)c1`: the pIC50 in data set [5] was 6.65. Also, the IC50 in the data set with Leishmania amazonensis turned out to be 4.7 µM; in the data set with Trypanosoma cruzi [2], 220 nM. For the same compound, the selectivity ratio in data set [3] is above 227. In addition, the CC50 at 72 h in data set [4] is above 50 µM.
Consider `COc1ccc(-n2cc(Cn3cnc([N+](=O)[O-])n3)nn2)cc1OC`, for which the pIC50 in data set [5] turned out to be 5.95. For the same compound, the half-maximal inhibitory concentration (IC50) in the data set with Leishmania amazonensis worked out at 4.7 µM; in the data set with Trypanosoma cruzi [2], 1120 nM. Besides, the selectivity ratio in data set [3] is above 44.6. Besides, in data set [4], the CC50 at 72 h was above 50 µM.
For `CSc1ccc(-n2cc(Cn3cnc([N+](=O)[O-])n3)nn2)cc1` the same measures were 6.67, 4.7 µM, 210 nM, above 238 and above 50 µM.
With `CCOC(=O)c1ccc(-n2cc(Cn3cnc([N+](=O)[O-])n3)nn2)cc1`, the IC50 worked out at 4.7 µM in the data set with Leishmania amazonensis and 38400 nM with Trypanosoma cruzi [2]. Moreover, the selectivity ratio in data set [3] is above 1.3. In data set [4], this compound had a CC50 at 72 h above 50 µM.
On to `CS(=O)(=O)c1ccc(-n2cc(Cn3cnc([N+](=O)[O-])n3)nn2)cc1`, for which the results for the IC50 in the data set with Leishmania amazonensis and in the data set on Trypanosoma cruzi [2] were 4.7 µM and above 50000 nM, respectively. Further, the selectivity ratio in data set [3] is above 1. The compound also gave a cytotoxic concentration (CC50) at 72 h in data set [4] above 50 µM.
For the compound `O=[N+]([O-])c1ccc(-n2cc(Cn3cnc([N+](=O)[O-])n3)nn2)cc1`, in data set [5], the pIC50 is reported as 6.21. Besides, the IC50 stood at 4.7 µM with Leishmania amazonensis and 610 nM in the data set on Trypanosoma cruzi [2]. Further, the selectivity ratio in data set [3] is above 82. In addition, the CC50 at 72 h in data set [4] is above 50 µM.
Turning to `COc1cccc(-n2cc(Cn3cnc([N+](=O)[O-])n3)nn2)c1`, the figures for the IC50 in the data set with Leishmania amazonensis and in the data set on Trypanosoma cruzi [2] were 4.7 µM and 7930 nM, respectively. Further, in data set [3], the selectivity ratio is above 6.3. The compound further registered a CC50 at 72 h in data set [4] above 50 µM.
As for `O=[N+]([O-])c1ncn(Cc2cn(-c3ccc(Cl)c(Cl)c3)nn2)n1`, the pIC50 in data set [5] was found to be 6.95. In addition, the IC50 with Leishmania amazonensis was determined as 4.7 µM; with Trypanosoma cruzi [2] it was 110 nM. Besides, the “Ratio IC50” value in the data set with Trypanosoma cruzi [6] is recorded as “<=55”. Moreover, in data set [3], the selectivity ratio is above 454. Further, in data set [4], the CC50 at 72 h was above 50 µM.
Consider `O=[N+]([O-])c1ncn(Cc2cn(-c3ccc(C(F)(F)F)cc3)nn2)n1`, for which the IC50 in the data set with Leishmania amazonensis came out at 4.7 µM; in the data set with Trypanosoma cruzi [2] it was 3600 nM. Also, the selectivity ratio in data set [3] was above 27.9. Moreover, the CC50 at 72 h in data set [4] was above 50 µM.
Regarding `N#Cc1ccc(-n2cc(Cn3cnc([N+](=O)[O-])n3)nn2)cc1`, the figures for the 50% inhibitory concentration (IC50) in the data set with Leishmania amazonensis and in the data set with Trypanosoma cruzi [2] were 4.7 µM and 1450 nM, respectively. Besides, the selectivity ratio in data set [3] is above 34.5. This compound displayed a cytotoxic concentration (CC50) at 72 h in data set [4] above 50 µM.
Take `NS(=O)(=O)c1ccc(-n2cc(Cn3cnc([N+](=O)[O-])n3)nn2)cc1`: the IC50 was 4.7 µM in the data set with Leishmania amazonensis and above 50000 nM in the data set on Trypanosoma cruzi [2]. The selectivity ratio in data set [3] was above 1. For the same compound, the CC50 at 72 h in data set [4] is above 50 µM.
For `COc1cc(-n2cc(Cn3cnc([N+](=O)[O-])n3)nn2)cc(OC)c1OC` the same measures were 4.7 µM, 2890 nM, above 17.3 and above 50 µM.
For the compound `N#Cc1cccc(-n2cc(Cn3cnc([N+](=O)[O-])n3)nn2)c1`, the IC50 came out at 4.7 µM in the data set on Leishmania amazonensis and 7350 nM in the data set on Trypanosoma cruzi [2]. For the same compound, the selectivity ratio in data set [3] is above 6.8. In addition, the CC50 at 72 h in data set [4] is above 50 µM.
`O=[N+]([O-])c1ncn(Cc2cn(-c3cccc(Cl)c3)nn2)n1`: the IC50 is 4.7 µM in the data set on Leishmania amazonensis and 5720 nM in the data set on Trypanosoma cruzi [2]. Besides, the selectivity ratio in data set [3] is above 8.74. In addition, the CC50 at 72 h in data set [4] is above 50 µM.
For `O=[N+]([O-])c1ncn(Cc2cn(-c3ccc(F)cc3)nn2)n1`, in data set [5], the pIC50 amounted to 5.95. The IC50 came out at 4.7 µM in the data set on Leishmania amazonensis and 1110 nM in the data set with Trypanosoma cruzi [2]. Moreover, the selectivity ratio in data set [3] was above 45. For the same compound, the CC50 at 72 h in data set [4] is above 50 µM.
As for `COc1ccc(-n2cc(Cn3ccnc3[N+](=O)[O-])nn2)cc1OC`, the IC50 in the data set with Trypanosoma cruzi [2] was 650 nM.
As for `O=[N+]([O-])c1ncn(Cc2cn(-c3ccccc3)nn2)n1`, the pIC50 in data set [5] was 5.86. The IC50 was determined as 4.7 µM in the data set on Leishmania amazonensis and 1350 nM in the data set on Trypanosoma cruzi [2]. Further, the selectivity ratio in data set [3] is above 37. In data set [4], this compound had a 50% cytotoxic concentration (CC50) at 72 h above 50 µM.
On to `O=[N+]([O-])c1ncn(Cc2cn(-c3ccc(Cl)c(C(F)(F)F)c3)nn2)n1`, for which the IC50 in the data set on Leishmania amazonensis was 4.7 µM; with Trypanosoma cruzi [2], 9890 nM. Also, in data set [3], the selectivity ratio was above 5.05. Besides, the CC50 at 72 h in data set [4] is above 50 µM.
With `O=C(O)c1cccc(-n2cc(Cn3cnc([N+](=O)[O-])n3)nn2)c1`, the results for the IC50 with Leishmania amazonensis and in the data set on Trypanosoma cruzi [2] were 4.7 µM and above 50000 nM, respectively. Moreover, in data set [3], the selectivity ratio was above 1. The compound also returned a CC50 at 72 h in data set [4] above 50 µM.
As to `Cc1ccc(-n2cc(Cn3cnc([N+](=O)[O-])n3)nn2)cc1`, the pIC50 in data set [5] came to 6.48. In addition, the IC50 in the data set with Leishmania amazonensis stood at 4.7 µM; with Trypanosoma cruzi [2] it was 330 nM. Moreover, the selectivity ratio in data set [3] was above 152. For the same compound, in data set [4], the CC50 at 72 h is above 50 µM.
Take `O=[N+]([O-])c1cccc(-n2cc(Cn3cnc([N+](=O)[O-])n3)nn2)c1`: the IC50 with Leishmania amazonensis stood at 4.7 µM; in the data set on Trypanosoma cruzi [2], 24400 nM. In data set [3], the selectivity ratio was above 4.1. In addition, in data set [4], the CC50 at 72 h is above 50 µM.
For the compound `O=[N+]([O-])c1ncn(Cc2cn(-c3ccc(Oc4ccccc4)cc3)nn2)n1`, the pIC50 in data set [5] worked out at 7.15. Also, the IC50 was found to be 4.7 µM in the data set with Leishmania amazonensis and 70 nM with Trypanosoma cruzi [2]. Further, the selectivity ratio in data set [3] is above 714. Besides, the CC50 at 72 h in data set [4] is above 50 µM.
In the case of `O=[N+]([O-])c1ncn(Cc2cn(-c3ccc4c(c3)OCO4)nn2)n1`, the IC50 in the data set on Leishmania amazonensis came out at 89.5 µM; with Trypanosoma cruzi [2] it was 13800 nM. The selectivity ratio in data set [3] was above 3.62. The same compound gave a CC50 at 72 h in data set [4] above 50 µM.
As to `O=[N+]([O-])c1ncn(Cc2cn(-c3ccc(Cl)cc3)nn2)n1`, in data set [5], the pIC50 was 6.5. Besides, the IC50 in the data set with Leishmania amazonensis worked out at 4.7 µM; in the data set with Trypanosoma cruzi [2], 310 nM. For the same compound, the selectivity ratio in data set [3] is above 161. In data set [4], this compound registered a CC50 at 72 h above 50 µM.
For `COc1ccc(-n2cc(Cn3cnc([N+](=O)[O-])n3)nn2)cc1` the same measures were 6.07, 4.7 µM, 840 nM, above 59.5 and above 50 µM.
Consider `Nc1ccc2cc3ccccc3cc2c1` [2-AMINOANTHRACENE], for which the Activity in data set [7] is 977.33.
Take `O=C(Cn1ccnc1[N+](=O)[O-])NCc1ccccc1` [BENZNIDAZOLE]: the selectivity ratio in data set [3] is above 8.13. In data set [4], this compound came in with a CC50 at 72 h above 50 µM.
